In the experiment the target is T1, AXL (human catalytic domain) (Homo sapiens, UniProt P30530).
T1 construct: purchased Upstate Ltd. 14-512
T1 sequence (P30530 473-894): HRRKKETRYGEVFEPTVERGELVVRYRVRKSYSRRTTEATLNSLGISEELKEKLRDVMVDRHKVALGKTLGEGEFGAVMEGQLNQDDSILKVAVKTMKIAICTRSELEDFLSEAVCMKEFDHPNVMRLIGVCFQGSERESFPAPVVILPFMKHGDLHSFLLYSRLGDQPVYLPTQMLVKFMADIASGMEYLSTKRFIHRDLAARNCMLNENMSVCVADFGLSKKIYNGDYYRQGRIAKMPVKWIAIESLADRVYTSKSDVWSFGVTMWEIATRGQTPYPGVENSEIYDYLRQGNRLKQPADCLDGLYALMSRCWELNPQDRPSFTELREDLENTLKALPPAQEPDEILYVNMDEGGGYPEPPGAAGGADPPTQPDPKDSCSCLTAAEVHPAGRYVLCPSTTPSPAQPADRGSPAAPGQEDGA
The experiment can be described thus: AXL (human catalytic domain) Enzyme Activity Assay (IMAP fluorescence polarisation). The experiment is classed as biochemical. Summed up: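 IMAP FP readout (Ex485/Em535, after overnight binding) measured inhibition of the human AXL catalytic domain (aa473-894, 15 nM final) acting on 100 nM 5FAM-CSK-tide at 150 μM ATP, equal to KM. Reactions ran 60 min at room temperature in pH 7.0 HEPES buffer; IC50 from 10-point curves.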
On the technique in general: In fluorescence polarisation assays a small probe gives low polarisation when free and higher when bound to something large.

The mark [1] stands for this setting: first data set, recombinant AXL isoform 1 aa473-894, 150 μM ATP.
Where [2] appears, read: further data set (WW-001 through WW-169, XX-001 through XX-469, YY-001 through YY-016, ZZ-001 through ZZ-003), 150 μM ATP.

The values below come from US8431596B2 (Cancer Research Technology Limited, priority 2007, dated 2013).

Molecules are shown by their SMILES. A value given as a limit tells only on which side of the number the result lay.

As usually defined, the IC50 is the point on the concentration scale where inhibition reaches its midpoint. As to `CN(C)CCNC(=O)c1ccc(-c2cccc3nc(NC(=O)C4CC4)nn23)cc1` [WW-009, 4-[2-(Cyclopropanecarbonyl-amino)-[1,2,4]triazolo[1,5-a]pyridin-5-yl]-N-(2-dimethylamino-ethyl)-benzamide], the IC50 is, setting by setting: under setting [1], 1 to 10 µM; under setting [2], 1 to 10 µM.
Compound `O=C(CCN1CCCCC1)Nc1ccc(Nc2nc3cccc(-c4ccc5c(c4)OCCO5)n3n2)cc1` [XX-123] gave an IC50 under setting [2] of 0.1 to 1 µM.
For the compound `Cn1nc(COc2cccc(-c3cccc4nc(Nc5ccc(OCCN6CCCC6)cc5)nn34)c2)cc1-c1ccccc1` [XX-459], the IC50 under setting [2] was 1 to 10 µM.
In turn, `COc1cccc(CNc2cccc(-c3cccc4nc(Nc5ccc(OCCN6CCCC6)cc5)nn34)c2)c1` [XX-452] returned an IC50 under setting [2] of 0.1 to 1 µM.
With `CN(C)C(=O)c1ccc(-c2cccc3nc(NC(=O)C4CC4)nn23)cc1` [WW-029], the IC50 under setting [1] lay within 1 to 10 µM and the IC50 under setting [2] lay in the range of 1 to 10 µM.
Turning to `O=C(Nc1nc2cccc(-c3cccc(CO)c3)n2n1)C1CC1` [WW-028], the IC50 runs as follows: under setting [1], 1 to 10 µM; under setting [2], 1 to 10 µM.
Turning to `O=C(Nc1nc2cccc(-c3ccc(N4CCOCC4)nc3)n2n1)C1CC1` [WW-062], the IC50 fell in the range of 1 to 10 µM under setting [1] and 1 to 10 µM under setting [2].
On to `CN(C)C/C=C/c1ccc(Nc2nc3cccc(-c4ccc5c(c4)OCCO5)n3n2)cc1` [XX-082], for which the 50% inhibitory concentration (IC50) is, setting by setting: under setting [1], under 1 µM; under setting [2], at most 0.1 µM.
Take `O=C(Nc1nc2cccc(-c3ccc4cc[nH]c4c3)n2n1)C1CC1` [WW-106]: the IC50 reads like this: under setting [1], under 1 µM; under setting [2], 0.1 to 1 µM.
In turn, `O=C(NCCN1CCCC1)c1ccc(Nc2nc3cccc(-c4ccc5c(c4)OCCO5)n3n2)cc1` [XX-110] came in with an IC50 under setting [2] of at most 0.1 µM.
Consider `Cc1ccccc1COc1cccc(-c2cccc3nc(Nc4ccc(OCCN5CCCC5)cc4)nn23)c1` [XX-400], for which, under setting [2], the half-maximal inhibitory concentration (IC50) was in the range of 1 to 10 µM.
In turn, `COc1ccccc1COc1cccc(-c2cccc3nc(Nc4ccc(OCCN5CCCC5)cc4)nn23)c1` [XX-338] displayed an IC50 under setting [2] of 1 to 10 µM.
In turn, `O=C(Nc1ccc(-c2cccc3nc(Nc4ccc(OCCN5CCCC5)cc4)nn23)cc1)c1cccc(Cl)c1` [XX-220] showed an IC50 under setting [2] of 1 to 10 µM.
Under setting [2], `CCN(CC)CCNc1cc(Nc2nc3cccc(-c4ccc(OC)cc4)n3n2)ccn1` [XX-300] displayed an IC50 of 0.1 to 1 µM.
The same measure, in the same setting: the result for `COc1ccc(-c2cccc3nc(Nc4ccc(OCC(O)CN5CCOCC5)cc4)nn23)cc1` (centres unmarked) [XX-410] reads 0.1 to 1 µM; that for `c1cc(-c2ccc3cc[nH]c3c2)n2nc(Nc3ccc(OCCCN4CCCCC4)cc3)nc2c1` [XX-347], 0.1 to 1 µM; that for `CN(C)CCCc1cccc(Nc2nc3cccc(-c4ccc5c(c4)OCCO5)n3n2)c1` [XX-115, [5-(2,3-Dihydro-benzo[1,4]dioxin-6-yl)-[1,2,4]triazolo[1,5-a]pyridin-2-yl]-[3-(3-dimethylamino-propyl)-phenyl]-amine], 0.1 to 1 µM.
Compound `CC(C)CC(=O)NCc1cccc(-c2cccc3nc(Nc4ccc(OCCN5CCCC5)cc4)nn23)c1` [XX-325, 3-Methyl-N-(3-{2-[4-(2-pyrrolidin-1-yl-ethoxy)-phenylamino]-[1,2,4]triazolo[1,5-a]pyridin-5-yl}-benzyl)-butyramide] showed an IC50 under setting [2] of 0.1 to 1 µM.
Consider `O=C(Nc1nc2cccc(-c3ccc(F)c(F)c3)n2n1)C1CC1` [WW-090], for which the IC50 under setting [1] was in the range of 1 to 10 µM and the IC50 under setting [2] was in the range of 1 to 10 µM.
Compound `O=C(Nc1cccc(-c2cccc3nc(Nc4ccc(OCCN5CCCC5)cc4)nn23)c1)Nc1ccccc1Cl` [XX-232] showed an IC50 under setting [2] of 1 to 10 µM.
With `COc1ccc(-c2cccc3nc(Nc4ccc(OCCO)cc4)nn23)cc1` [XX-011, 2-{4-[5-(4-methoxy-phenyl)-[1,2,4]triazolo[1,5-a]pyridin-2-ylamino]-phenoxy}-ethanol], the IC50 under setting [1] is under 1 µM and the IC50 under setting [2] fell in the range of 1 to 10 µM.
As for `CCN(CC)CCOc1cccc(Nc2nc3cccc(-c4ccc5c(c4)OCCO5)n3n2)c1` [XX-076], the IC50 under setting [1] is under 1 µM and the IC50 under setting [2] is at most 0.1 µM.
On to `O=C(Cn1cc(-c2cccc3nc(Nc4ccc(OCCN5CCCC5)cc4)nn23)cn1)NC1CC1` [XX-437], for which the IC50 under setting [2] was in the range of 1 to 10 µM.
Under setting [2], `CC(Sc1ccc(Nc2nc3cccc(-c4ccc5c(c4)OCCO5)n3n2)cc1)C(N)=O` (centres unmarked) [XX-161] registered an IC50 of 0.1 to 1 µM.
The compound `C[C@H](CN)Oc1ccc(Nc2nc3cccc(-c4ccc5c(c4)OCCO5)n3n2)cc1` [XX-142] gave an IC50 under setting [2] of 0.1 to 1 µM.
In turn, `O=C(Cn1cc(-c2cccc3nc(Nc4ccc(OCCN5CCCC5)cc4)nn23)cn1)c1cccs1` [XX-317] gave an IC50 under setting [2] of 0.1 to 1 µM.
`COc1ccc(-c2cccc3nc(Nc4cccc(C(C)=O)c4)nn23)cc1` [XX-008]: the IC50 under setting [2] was 0.1 to 1 µM.
Regarding `CCc1nnc(NCCOc2ccc(Nc3nc4cccc(-c5ccc(OC)cc5)n4n3)cc2)[nH]1` [XX-030], the IC50 was under 1 µM under setting [1] and 0.1 to 1 µM under setting [2].
On to `Clc1ccccc1Cn1cc(-c2cccc3nc(Nc4ccc(OCCN5CCCC5)cc4)nn23)cn1` [XX-354], for which, under setting [2], the IC50 was in the range of 0.1 to 1 µM.
`Cc1ccc(CCn2cc(-c3cccc4nc(Nc5ccc(OCCN6CCCC6)cc5)nn34)cn2)cc1` [XX-350]: the IC50 under setting [2] fell in the range of 0.1 to 1 µM.
Take `c1cc(-c2ccncc2)cc(-c2cccc3nc(Nc4ccc(OCCN5CCCC5)cc4)nn23)c1` [XX-466]: the IC50 under setting [2] fell in the range of 0.1 to 1 µM.
On the same count and under the same terms, the result for `Cc1cc(CNc2cccc(-c3cccc4nc(Nc5ccc(OCCN6CCCC6)cc5)nn34)c2)no1` [XX-446] reads 0.1 to 1 µM; that for `CCN(CC)CCOc1cc(Nc2nc3cccc(-c4ccc(OC)cc4)n3n2)ccc1C` [XX-415], 0.1 to 1 µM; that for `CC[C@H](COc1ccc(Nc2nc3cccc(-c4ccc(OC)cc4)n3n2)cc1)N1CCCC1` [XX-414], at most 0.1 µM.
`CNCCCOc1ccc(Nc2nc3cccc(-c4ccc(OC)cc4)n3n2)cc1` [XX-040]: the IC50 under setting [1] is under 1 µM.
For `COc1ccc(-c2cccc3nc(Nc4ccc(OCCN(C)Cc5ccccc5)cc4)nn23)cc1` [XX-064], the IC50 is, setting by setting: under setting [1], under 1 µM; under setting [2], 0.1 to 1 µM.
Under setting [2], `O=C(Nc1cccc(Cl)c1)c1cccc(-c2cccc3nc(Nc4ccc(OCCN5CCCC5)cc4)nn23)c1` [XX-322] had an IC50 of 1 to 10 µM.
Consider `Cn1cnnc1SCCn1cc(-c2cccc3nc(Nc4ccc(OCCN5CCCC5)cc4)nn23)cn1` [XX-429], for which the IC50 under setting [2] lay within 0.1 to 1 µM.
The compound `COc1ccc(-c2cccc3nc(Nc4ccnc(C(=O)NCCN5CCCC5)c4)nn23)cc1` [XX-386] registered a half-inhibitory concentration (IC50) under setting [2] of 1 to 10 µM.
With `NCc1cccc(-c2cccc3nc(Nc4ccc(OCCN5CCCC5)cc4)nn23)c1` [XX-308, [5-(3-Aminomethyl-phenyl)-[1,2,4]triazolo[1,5-a]pyridin-2-yl]-[4-(2-pyrrolidin-1-yl-ethoxy)-phenyl]-amine], under setting [2], the IC50 lay within 1 to 10 µM.
Consider `O=C(Nc1nc2cccc(-c3ccsc3)n2n1)C1CC1` [WW-059], for which the IC50 was under 1 µM under setting [1] and 0.1 to 1 µM under setting [2].
Take `COc1ccc(CNc2cccc3nc(NC(=O)C4CC4)nn23)cc1` [WW-167]: the IC50 is 1 to 10 µM under setting [1] and 1 to 10 µM under setting [2].
The compound `COc1ccc(-c2cccc3nc(Nc4cccc(N(C)C(=O)C(C)N5CCCC5)c4)nn23)cc1` (centres unmarked) [XX-390] yielded an IC50 under setting [2] of at most 0.1 µM.
`Cc1cc(-c2cccc3nc(Nc4ccc(OCCN5CCCC5)cc4)nn23)ccc1N(C)C` [XX-094] displayed an IC50 under setting [2] of 0.1 to 1 µM.
On the same count and under the same terms, the value for `CN1CCN(C(=O)c2ccc(Nc3nc4cccc(-c5ccc6c(c5)OCCO6)n4n3)cc2)CC1` [XX-111] was 0.1 to 1 µM.
Regarding `NCc1cc2cc(Nc3nc4cccc(-c5ccc6c(c5)OCCO6)n4n3)ccc2o1` [XX-068], the IC50 was under 1 µM under setting [1] and at most 0.1 µM under setting [2].
Taken in the same sequence, the figures for `O=C(Nc1nc2cccc(-c3ccc(NS(=O)(=O)c4ccccc4)cc3)n2n1)C1CC1` [WW-156] were 1 to 10 µM and 1 to 10 µM.
The compound `CCCS(=O)(=O)n1cc(-c2cccc3nc(Nc4ccc(OCCN5CCCC5)cc4)nn23)cn1` [XX-380] gave an IC50 under setting [2] of at most 0.1 µM.
On to `O=C(Nc1nc2cccc(-c3ccc4c(c3)CCO4)n2n1)C1CC1` [WW-159], for which the IC50 is, setting by setting: under setting [1], under 1 µM; under setting [2], 0.1 to 1 µM.
Under setting [2], `Fc1ccc(CNc2cccc(-c3cccc4nc(Nc5ccc(OCCN6CCCC6)cc5)nn34)c2)cc1` [XX-456] showed an IC50 of 0.1 to 1 µM.
The compound `c1cc(-c2ccc(NCc3ccoc3)cc2)n2nc(Nc3ccc(OCCN4CCCC4)cc3)nc2c1` [XX-268] returned an IC50 under setting [2] of 0.1 to 1 µM.
With `COc1ccc(-c2cccc3nc(Nc4ccc(OCCNc5ccncc5)cc4)nn23)cc1` [XX-028], the IC50 under setting [1] is under 1 µM and the IC50 under setting [2] is 0.1 to 1 µM.
Taken in the same sequence, the figures for `CC(C)(C)OC(=O)Nc1ccc(-c2cccc3nc(NC(=O)C4CC4)nn23)cc1` [WW-110] were 1 to 10 µM and 1 to 10 µM.
As for `NCC(=O)Nc1ccc(-c2cccc3nc(NC(=O)C4CC4)nn23)cc1` [WW-155, Cyclopropanecarboxylic acid {5-[4-(2-amino-acetylamino)-phenyl]-[1,2,4]triazolo[1,5-a]pyridin-2-yl}-amide], the half-inhibitory concentration (IC50) is 1 to 10 µM under setting [1] and 1 to 10 µM under setting [2].
For `COc1ccc(OC)c(-c2cccc3nc(Nc4ccc(OCCN5CCCC5)cc4)nn23)c1` [XX-333], the half-inhibitory concentration (IC50) under setting [2] lay in the range of 1 to 10 µM.
Compound `Oc1ccc(-c2cccc3nc(Nc4ccc(OCCN5CCCC5)cc4)nn23)cc1` [XX-151] had an IC50 under setting [2] of 0.1 to 1 µM.
For the compound `COCC(=O)Nc1nc2cccc(-c3ccc(OC)cc3)n2n1` [WW-041], the IC50 was in the range of 1 to 10 µM under setting [1] and 1 to 10 µM under setting [2].
